For this assay, the system named is MDA-MB-468 breast. As to the kind of experiment: NCI tumour cell line growth inhibition, 48 h.

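Exposure lasted 48 hours, with cells grown in 96-well plates and compounds tested at five concentrations. GI50 marks 50% less growth. At the TGI there is no net growth.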 A value given as a limit tells only on which side of the number the result lay.

This note sets out measurements from PubChem BioAssay (NCI).

On to `COc1ccc2c(c1)C(=O)/C(=C/c1ccc(OCC(=O)Nc3nccs3)cc1)O2`, for which the GI50 is 0.0181 µM and the TGI stood at 0.0392 µM.

Take `C[C@@H](CS(C)(=O)=O)Nc1ncc2cc(Oc3ccc(F)cc3F)c(=O)n(C)c2n1`: the GI50 was > 25 µM and the TGI was > 25 µM.

On to `Cc1cc(=O)n2[nH]c(-c3ccc(C(C)(C)C)cc3)cc2n1`, for which the GI50 is 3.38 µM and the TGI worked out at 40.6 µM.

Regarding `Clc1cccc(Cc2cn3cc(-c4ccccc4)nc3s2)c1Cl`, the GI50 was 6.28 µM and the TGI is > 100 µM.

Consider `CN(C)CCCNC1=C(Cl)C(=O)c2ccccc2C1=O`, for which the GI50 is 1.59 µM and the TGI was found to be 3.33 µM.

In the case of `Clc1ccc2c(N/N=C/c3c[nH]c4ccccc34)ccnc2c1`, the GI50 was 1.01 µM and the TGI stood at 2.45 µM.

For `COc1cc(/C=C/c2cc(/C=C/c3ccc(O)c(OC)c3)n(C(=O)Nc3ccc(F)cc3)n2)ccc1O`, the GI50 is 1.4 µM and the TGI is 5.76 µM.

For the compound `COc1cc2c3c(n(CCCNC4CCCCC4)c(=O)c2cc1OC)-c1cc2c(cc1C3=O)OCO2`, the GI50 is 5.65 µM and the TGI was found to be 15.7 µM.

With `Cc1cnc(NC(=O)C(Cc2ccccc2)NC(=O)c2ccccc2)s1` (stereo not drawn), the GI50 was 15.8 µM and the TGI turned out to be 35.7 µM.

Take `O=C1/C(=C/c2ccc([N+](=O)[O-])cc2)COc2ccc(O)c(O)c21`: the GI50 is 1.87 µM and the TGI turned out to be 5.55 µM.

With `Oc1ccc(Cl)cc1-c1cc(-c2ccccc2Cl)[nH]n1`, the GI50 is 1.96 µM and the TGI was 7.93 µM.

Turning to `C=C(CNCCO)[C@@H]1CC[C@]2(CO)CC[C@]3(C)[C@H](CC[C@@H]4[C@@]5(C)CCC(N)C(C)(C)[C@@H]5CC[C@]43C)[C@@H]12` (stereo partly drawn), the GI50 is 1.67 µM and the TGI is 3.53 µM.

`O=C(Nc1ccc(I)cc1)c1cc([N+](=O)[O-])ccc1O`: the GI50 is 3.99 µM and the TGI turned out to be 39.4 µM.

Take `CNC(=O)c1ccccc1Nc1nc(Nc2ccc(N3CCOCC3)cc2OC)ncc1Cl`: the GI50 was 1.49 µM and the TGI came out at 4.32 µM.
